Data taken from patent publication US11965100B2, “Aggregation-induced emission luminogens useful for cancer cell discrimination and monitoring” (The Hong Kong University of Science and Technology, priority 2020, dated 2024).

Columns and labels:
[1] = Quantum yield in the solid state; assay type: physicochemical
Description: IVPI-2 is able to stain mitochondria in healthy live cancer cells. However, when Δψm decreases, IVPI-2 migrates into nucleolus. Since IVPI-2 is target-changeable according to the change of mitochondrial physiology, the chemical structure of IVPI-2 was modified in order to enhance the mitochondria to nucleolus migration. Iodide ion is a well-known effective fluorescent quencher due to its heavy-atom effect. The quantum yield of IVP-02 in the solid state is 4.3%, which is about 3 times than that of IVPI-02 (1.3%). An Exemplary synthetic route to certain embodiments of the compounds described herein is depicted in Scheme 1.

[2] = Absorption and one-photon excited fluorescence spectra, AIE activity; assay type: physicochemical
Description: Similar results were reported by others. […] With the increase of glycerol volume content accompanied by viscosity increasing, the FL intensity increased gradually. […] These phenomena occur because high viscosity and low temperature could hamper intramolecular motion, leading to the closure of the nonradiative decay channel and thus enhanced FL emission. Furthermore, we added some RNA in PBS solution of IVP-02. […] Based on the calculation results in FIG. 20, IVP-02 located in the minor grooves of RNA, where the intramolecular motion of IVP-02 was also hampered.

[3] = system: cancer cells (A549 and HeLa) co-cultured with normal cells (COS7 and HLF); experiment: CLSM imaging of cancer cells co-cultured with normal cells; assay type: cell-based; conditions: 30 min
Description: FIG. 5 CLSM images of live cancer cells (A549 and HeLa) co-cultured with normal cells (COS7 and HLF) (A), and the images of A549 and HLF cells seeded on different cover glasses (Scale bar=20 μm) (B) stained with 2 μM IVP-02 for 30 min (Scale bar=50 μm), respectively. λex=488 nm, λem=500-650 nm.
FIG. 10 CLSM images of live cancer cells (A549) co-cultured with normal cells (COS7) (A), and the images of A549 and HLF cells seeded on different cover glasses Scale bar=20 μm (B) stained with 2 μM IVP-02, 04, 06, 22, 42, and 62 for 30 min Scale bar=50 μm, respectively. (The first column in B is the same as FIG. 3B) λex=488 nm, λem=500-650 nm.
FIG. 11 CLSM images of live cancer cells (HeLa) co-cultured with normal cells (COS7), stained with 2 μM IVP-02, 04, 06, 22, 42, and 62 for 30 min, respectively. λex=488 nm, λem=500-650 nm. Scale bar=20 μm.
FIG. 12 CLSM images of live cancer cells (A549) co-cultured with normal cells (HLF), stained with 2 μM IVP-02, 04, 06, 22, 42, and 62 for 30 min, respectively. λex=488 nm, λem=500-650 nm. Scale bar=20 μm.
The bioimaging properties of IVP-02 in live cells were investigated by confocal laser scanning microscopy (CLSM). Cancer cells (A549 and HeLa) and normal cells (COS7 and HLF) were stained with IVP-02, respectively. […] So IVP-02 holds the high potential to differentiate cancer and normal cells. To verify this speculation, cancer and normal cells were co-cultured and stained with IVP-02. […] To precisely confirm the selectivity of IVP-02 to cancer cells, cancer cells A549 and normal cells HLF (A549 and HLF are both human lung cells) were seeded on different cover glasses, respectively. Then the two cover glasses were put in the same dish and stained with IVP-02 at the same time.
Cancer cells A549 co-cultured with normal cells COS7 were stained with these molecules, respectively. […] Then HeLa cells co-cultured with COS7 cells (FIG. 11), and A549 cells co-cultured with HLF cells (FIG. 12) were also stained with these molecules, the results were similar with that in A549 cells co-cultured with COS7 cells. In addition to co-culturing, A549 cells and HLF cells were also seeded on different cover glasses and stained with these molecules. […] Based on the imaging results above, it can be concluded that the selectivity of these IVP molecules to cancer cells is also based on the length of alkyl chain at pyridinium salt side. Lengthening the alkyl chain at the pyridinium salt side will eliminate the selectivity to cancer cells.

A549 cells = experiment: Mitochondrion-nucleolus migration on CCCP treatment, A549 cells; assay type: cell-based, human
Description: FIG. 15 Live A549 cells (A) and live A549 co-cultured with COS 7 cells, live HeLa co-cultured with COS7 cells (B) were pre-stained with 2 μM IVP-02 for 30 min, and treated with 20 μM CCCP for 5 min. Then CCCP was removed away and fresh culture medium was added for another 5 min. λex=488 nm, λem=500-650 nm. Scale bar=20 μm.
FIG. 18 Live A549 cells were pre-stained with 2 μM IVP-04, 22, 42, 06, 62 for 30 min, and treated with 20 μM CCCP for 5 min. Then CCCP was removed away and fresh culture medium was added for another 5 min, respectively. λex=488 nm, λem=500-650 nm. Scale bar=20 μm.
(§1) Monitoring cell viability is a highly valuable task for the fundamental researches in biology, pathology, and medicine. Then we investigated whether IVP-02 could monitor cell viability. Δψm is a very important indicator to characterize cell viability. With the loss of cell viability, Δψm would decrease, while with the recovery of cell viability, Δψm would also recover to the normal level. […] Carbonyl cyanide m-chlorophenyl hydrazone (CCCP) is a type of protonophore and can cause rapid acidification of mitochondria by collapsing Δψm. Cancer cells A549 were pre-stained with IVP-02 for 30 min. In FIG. 15A, in the beginning, IVP-02 stained mitochondria clearly. […] Hydrogen peroxide (H2O2) can inhibit the oxidation respiratory chain that would cause the loss of cell viability. Then live A549 and HeLa cells were pre-stained with IVP-02, and treated with 10 mM H2O2.
(§2) In addition to IVP-02, we further investigated whether other IVP molecules could monitor the viability of cancer cells through mitochondrion-nucleolus migration was investigated. A549 cells were pre-stained with IVP-04, 22, 42, 06, and 62, respectively, and then CCCP was added.

HeLa cells = experiment: Mitochondrion-nucleolus migration on CCCP treatment, HeLa cells; assay type: cell-based; conditions: pre-stained 2 μM 30 min, 20 μM CCCP 5 min
Description: FIG. 16 Live HeLa cells were pre-stained with 2 μM IVP-02 for 30 min, and treated with 20 μM CCCP for 5 min. Then CCCP was removed away and fresh culture medium was added for another 5 min. λex=488 nm, λem=500-650 nm. Scale bar=20 μm.
FIG. 19 Live HeLa cells were pre-stained with 2 μM IVP-04, 22, 42, 06, 62 for 30 min, and treated with 20 μM CCCP for 5 min. Then CCCP was removed away and fresh culture medium was added for another 5 min, respectively. λex=488 nm, λem=500-650 nm. Scale bar=20 μm.
as §1, §2

SMILES: CC[n+]1ccc(/C=C/c2c[nH]c3ccccc23)cc1 [IVP-02]
- quantum yield [1]: 4.3%
- quantum yield relative to IVPI-02 [1]: about 3 times
- AIE activity ([2]; viscosity, temperature, RNA, solid state): possesses AIE activity
- fluorescence in the solid state ([2]; λex 440 nm): around 575 nm
- staining of co-cultured cancer and normal cells ([3]; A549 and HeLa co-cultured with COS7 and HLF, 2 μM): only cancer cells (A549 and HeLa) were highly illuminated
- staining of co-cultured cancer and normal cells ([3]; A549 co-cultured with COS7, 2 μM): only stain A549 cells
- migration back to mitochondria after removal of CCCP (A549 cells; A549, CCCP removed, fresh medium 5 min): migrated back to mitochondria
- migration from mitochondria to nucleolus after addition of CCCP (A549 cells; A549, pre-stained 2 μM 30 min, 20 μM CCCP 5 min): released from mitochondria and migrated to nucleolus
- nucleolus staining after addition of CCCP (HeLa cells): could stain nucleolus
